What was measured:
RENCA cells = test: Intratumoral transfer of luciferase plasmid pTG11236 with HPC into RENCA tumors, luciferase measurement; format: in vivo; settings: RENCA tumors in B6D2 mice; 50 μl intratumoral, 0.4, 2 or 10 μg plasmid pTG11236 with 2 mg/ml HPC; 24 hours after last injection; compared with no HPC
Protocol: (§1) FIG. 1: show the effect of hexadecylphosphocholine (HPC) on intratumoral transfer of the luciferase-plasmid (pTG11236) into RENCA cells. Bars are means of RLU per minute per mg protein. Luciferase activity was measured 24 hours after the last injection of 50 μl of a composition, comprising between 0.4, 2 or 10 μg of plasmid and 2 mg/ml of HPC, into B6D2 mice. Plasmid DNA (pTG11236: CMV promoter, β-globin intron, luciferase cassette, 5739 base pairs) was prepared according to Bischoff et al., Analytical Biochemistry 254 (1997), 69-81. RENCA or P815 cells were injected under the skin of 6 to 8 week old B6D2 female mice (3 10^5 cells/animal). Eleven days after the injection of the cells, palpable tumours appear. Prior to intratumoral injection HPC was mixed with the plasmid DNA preparation Then, various quantities of plasmid and HPC were directly injected into the tumor three times (with three day-time interval between subsequent injection). Twenty four hours after injection of the composition, the mice were killed and the tumors were retrieved and frozen. Luciferase activity was quantified on whole tumor extracts using a conventional measurement kit (Luciferase Assay System, Promega). […] Luciferase activity was expressed as number of RLU emitted per minute, per mg of protein. Protein was measured on 10 μl samples using a VCA Protein Assay kit (Pierce).

P815 cells = test: Intratumoral transfer of luciferase plasmid pTG11236 with HPC into P815 tumors, luciferase measurement; format: in vivo; settings: P815 tumors in B6D2 mice; 50 μl intratumoral, 10 μg plasmid pTG11236 with 0.4 mg/ml HPC; 24 hours after last injection; compared with no HPC
Protocol: as §1, with “FIG. 2:” for “FIG. 1:”, “of HPC” for “of hexadecylphosphocholine (HPC)”, “into P815” for “into RENCA”, “comprising” for “comprising between 0.4, 2 or”, “and 0.4” for “and 2”, “Promega). Briefly, tumors were diluted in 200 μl of reporter lysis buffer (Promega).” for “Promega).”

**Q.** For `CCCCCCCCCCCCCCCCOP(=O)([O-])OCC[N+](C)(C)C` [HPC, hexadecylphosphocholine], which “Luciferase activity of the injected tumors (RLU per minute per mg protein)” value (RENCA cells) is on record?
**A.** higher

**Q.** And the “Luciferase activity of the injected tumors (RLU per minute per mg protein)” value (P815 cells)?
**A.** higher
